In patent publication US10961231B2, “NTCP inhibitors” (National Institute of Biological Sciences, Beijing, priority 2018, dated 2021):
Like-named read-outs stand apart in the source and are kept apart here.

Target: T1, NTCP (Homo sapiens, UniProt Q14973)
T1 sequence (Q14973 1-349): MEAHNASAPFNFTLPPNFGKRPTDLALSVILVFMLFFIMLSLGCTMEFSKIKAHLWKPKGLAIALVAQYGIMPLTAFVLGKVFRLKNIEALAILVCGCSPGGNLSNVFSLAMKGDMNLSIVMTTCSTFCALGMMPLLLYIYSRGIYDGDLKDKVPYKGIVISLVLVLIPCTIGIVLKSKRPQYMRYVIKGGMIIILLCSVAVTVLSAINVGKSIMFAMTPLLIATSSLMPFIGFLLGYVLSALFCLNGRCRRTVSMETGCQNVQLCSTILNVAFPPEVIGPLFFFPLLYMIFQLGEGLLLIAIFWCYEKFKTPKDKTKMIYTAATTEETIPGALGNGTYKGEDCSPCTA
Assay: [3H]-TCA uptake assay (NTCP inhibition)
Assay type: cell-based
Summary of the method: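 Read-out is liquid scintillation counting of Triton X-100 lysates after 15 min, 37° C uptake of 1 μM [3H]-taurocholate in Na+ Ringer's buffer (145 mM Na). Beforehand, PTH and HepG2-NTCP cells had 24 h in PMM for NTCP induction and 2 h of compound or DMSO treatment.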

[1] = IC50, given as a range, marked * (asterisk not explained)
[2] = given as a range, marked * (asterisk not explained)
[3] = given as a range, assay not given
[4] = IC50, given as a range, assay not given

Row | SMILES | IC50 [1] [nM] | IC50 [2] [nM] | also measured
1 | CCC1NC(=O)C(C2OC(Oc3cc(Cl)cc(OCC4CCOCC4)c3)CC2C)N(C)C(=O)C(C(C)C)N(C)C(=O)C(CC(C)C)N(C)C(=O)C(CC(C)C)N(C)C(=O)C(C)NC(=O)C(C)NC(=O)C(CC(C)C)N(C)C(=O)C(C(C)C)NC(=O)C(CC(C)C)N(C)C(=O)CN(C)C1=O (centres unmarked) [Compound 67-o] | 1000 to 100000 | – | –
2 | CCC1NC(=O)C(C2OC(Oc3cc(OC)cc(OCc4ccc(F)cc4)c3)CC2C)N(C)C(=O)C(C(C)C)N(C)C(=O)C(CC(C)C)N(C)C(=O)C(CC(C)C)N(C)C(=O)C(C)NC(=O)C(C)NC(=O)C(CC(C)C)N(C)C(=O)C(C(C)C)NC(=O)C(CC(C)C)N(C)C(=O)CN(C)C1=O (centres unmarked) [Compound 60A-o] | – | 1000 to 100000 | –
3 | CCOc1cc(OCC)cc(SC2CC(C)C(C3C(=O)NC(CC)C(=O)N(C)CC(=O)N(C)C(CC(C)C)C(=O)NC(C(C)C)C(=O)N(C)C(CC(C)C)C(=O)NC(C)C(=O)NC(C)C(=O)N(C)C(CC(C)C)C(=O)N(C)C(CC(C)C)C(=O)N(C)C(C(C)C)C(=O)N3C)O2)c1 [Compound 39A, [2-((2R,3R)-5-(3,5-diethoxyphenylthio)-3-methyltetrahydrofuran-2-yl)-2-(methylamino)acetic acid]^1-cyclosporin A] | – | – | IC50 [3]: 1 to 1000 nM
4 | CCC1NC(=O)C(C2OC(SC(C)c3ccc(Cl)cc3)CC2C)N(C)C(=O)C(C(C)C)N(C)C(=O)C(CC(C)C)N(C)C(=O)C(CC(C)C)N(C)C(=O)C(C)NC(=O)C(C)NC(=O)C(CC(C)C)N(C)C(=O)C(C(C)C)NC(=O)C(CC(C)C)N(C)C(=O)CN(C)C1=O (centres unmarked) [Compound 102-s] | 1000 to 100000 | – | –
5 | CCC1NC(=O)C(C2OC(Oc3cccc(OCc4ccc(F)c(Cl)c4)c3)CC2C)N(C)C(=O)C(C(C)C)N(C)C(=O)C(CC(C)C)N(C)C(=O)C(CC(C)C)N(C)C(=O)C(C)NC(=O)C(C)NC(=O)C(CC(C)C)N(C)C(=O)C(C(C)C)NC(=O)C(CC(C)C)N(C)C(=O)CN(C)C1=O (centres unmarked) [Compound 22A-o] | – | 1000 to 100000 | –
6 | CCC1NC(=O)C(C2OC(Sc3cc(OC)cc(OCC4CCOCC4)c3)CC2C)N(C)C(=O)C(C(C)C)N(C)C(=O)C(CC(C)C)N(C)C(=O)C(CC(C)C)N(C)C(=O)C(C)NC(=O)C(C)NC(=O)C(CC(C)C)N(C)C(=O)C(C(C)C)NC(=O)C(CC(C)C)N(C)C(=O)CN(C)C1=O (centres unmarked) [Compound 66] | – | 1000 to 100000 | –
7 | CCC1NC(=O)C(C2OC(Sc3cccc(OCc4cccc(F)c4)c3)CC2C)N(C)C(=O)C(C(C)C)N(C)C(=O)C(CC(C)C)N(C)C(=O)C(CC(C)C)N(C)C(=O)C(C)NC(=O)C(C)NC(=O)C(CC(C)C)N(C)C(=O)C(C(C)C)NC(=O)C(CC(C)C)N(C)C(=O)CN(C)C1=O [Compound 20A, [2-((2R,3R)-5-(3-(3-fluorobenzyloxy)phenylthio)-3-methyltetrahydrofuran-2-yl)-2-(methylamino)acetic acid]^1-cyclosporin A] | – | – | IC50 [3]: 1 to 1000 nM
8 | CCC1NC(=O)C(C2OC(Sc3cc(OCCOC)cc(OCCOC)c3)CC2C)N(C)C(=O)C(C(C)C)N(C)C(=O)C(CC(C)C)N(C)C(=O)C(CC(C)C)N(C)C(=O)C(C)NC(=O)C(C)NC(=O)C(CC(C)C)N(C)C(=O)C(C(C)C)NC(=O)C(CC(C)C)N(C)C(=O)CN(C)C1=O (centres unmarked) [Compound 73] | – | 1000 to 100000 | –
9 | CCC1NC(=O)C(C2OC(SCc3ccc(OCCN(C)C)cc3)CC2C)N(C)C(=O)C(C(C)C)N(C)C(=O)C(CC(C)C)N(C)C(=O)C(CC(C)C)N(C)C(=O)C(C)NC(=O)C(C)NC(=O)C(CC(C)C)N(C)C(=O)C(C(C)C)NC(=O)C(CC(C)C)N(C)C(=O)CN(C)C1=O (centres unmarked) [Compound 87A-s] | 1000 to 100000 | – | –
10 | CCC1NC(=O)C(C2OC(Sc3cc(OC)cc(OC)c3)CC2C)N(C)C(=O)C(C(C)C)N(C)C(=O)C(CC(C)C)N(C)C(=O)C(CC(C)C)N(C)C(=O)C(C)NC(=O)C(C)NC(=O)C(CC(C)C)N(C)C(=O)C(C(C)C)NC(=O)C(CC(C)C)N(C)C(=O)CN(C)C1=O [Compound 38A, [2-((2R,3R)-5-(3,5-dimethoxyphenylthio)-3-methyltetrahydrofuran-2-yl)-2-(methylamino)acetic acid]^1-cyclosporin A] | – | – | IC50 [3]: 1 to 1000 nM
11 | CCC1NC(=O)C(C2OC(Oc3cccc(N(C)CC)c3)CC2C)N(C)C(=O)C(C(C)C)N(C)C(=O)C(CC(C)C)N(C)C(=O)C(CC(C)C)N(C)C(=O)C(C)NC(=O)C(C)NC(=O)C(CC(C)C)N(C)C(=O)C(C(C)C)NC(=O)C(CC(C)C)N(C)C(=O)CN(C)C1=O (centres unmarked) [Compound 49A-o] | 1000 to 100000 | – | –
12 | CCCOc1cccc(SC2CC(C)C(C3C(=O)NC(CC)C(=O)N(C)CC(=O)N(C)C(CC(C)C)C(=O)NC(C(C)C)C(=O)N(C)C(CC(C)C)C(=O)NC(C)C(=O)NC(C)C(=O)N(C)C(CC(C)C)C(=O)N(C)C(CC(C)C)C(=O)N(C)C(C(C)C)C(=O)N3C)O2)c1 [Compound 31A, [2-((2R,3R)-3-methyl-5-(3-propoxyphenylthio)tetrahydrofuran-2-yl)-2-(methylamino)acetic acid]^1-cyclosporin A] | – | – | IC50 [3]: 1 to 1000 nM
13 | CCC1NC(=O)C(C2OC(Sc3cc(OC)cc(OCC4CCN(C)CC4)c3)CC2C)N(C)C(=O)C(C(C)C)N(C)C(=O)C(CC(C)C)N(C)C(=O)C(CC(C)C)N(C)C(=O)C(C)NC(=O)C(C)NC(=O)C(CC(C)C)N(C)C(=O)C(C(C)C)NC(=O)C(CC(C)C)N(C)C(=O)CN(C)C1=O (centres unmarked) [Compound 70] | – | 1000 to 100000 | –
14 | CCC1NC(=O)C(C2OC(Oc3cc(OC)cc(OCC4CCN(C)CC4)c3)CC2C)N(C)C(=O)C(C(C)C)N(C)C(=O)C(CC(C)C)N(C)C(=O)C(CC(C)C)N(C)C(=O)C(C)NC(=O)C(C)NC(=O)C(CC(C)C)N(C)C(=O)C(C(C)C)NC(=O)C(CC(C)C)N(C)C(=O)CN(C)C1=O (centres unmarked) [Compound 70-o] | – | 1000 to 100000 | –
15 | CCC1NC(=O)C(C2OC(Sc3cccc(OCCC4CCCN4C)c3)CC2C)N(C)C(=O)C(C(C)C)N(C)C(=O)C(CC(C)C)N(C)C(=O)C(CC(C)C)N(C)C(=O)C(C)NC(=O)C(C)NC(=O)C(CC(C)C)N(C)C(=O)C(C(C)C)NC(=O)C(CC(C)C)N(C)C(=O)CN(C)C1=O [Compound 15A, [2-((2R,3R)-3-methyl-5-(3-(2-(1-methylpyrrolidin-2-yl)ethoxy)phenylthio)tetrahydrofuran-2-yl)-2-(methylamino)acetic acid]^1-cyclosporin A] | – | – | IC50 [4]: 1000 to 10000 nM
16 | CCC1NC(=O)C(C2OC(Oc3ccc(N4CCN(C)CC4)cc3)CC2C)N(C)C(=O)C(C(C)C)N(C)C(=O)C(CC(C)C)N(C)C(=O)C(CC(C)C)N(C)C(=O)C(C)NC(=O)C(C)NC(=O)C(CC(C)C)N(C)C(=O)C(C(C)C)NC(=O)C(CC(C)C)N(C)C(=O)CN(C)C1=O (centres unmarked) [Compound 6A-o] | 1000 to 100000 | – | –
17 | CCC1NC(=O)C(C2OC(OCc3ccccc3OC)CC2C)N(C)C(=O)C(C(C)C)N(C)C(=O)C(CC(C)C)N(C)C(=O)C(CC(C)C)N(C)C(=O)C(C)NC(=O)C(C)NC(=O)C(CC(C)C)N(C)C(=O)C(C(C)C)NC(=O)C(CC(C)C)N(C)C(=O)CN(C)C1=O (single isomer, unassigned) [Compound 82B] | – | – | IC50 [3]: 1 to 1000 nM
18 | CCC1NC(=O)C(C2OC(OCc3ccc(OCCN(C)C)cc3)CC2C)N(C)C(=O)C(C(C)C)N(C)C(=O)C(CC(C)C)N(C)C(=O)C(CC(C)C)N(C)C(=O)C(C)NC(=O)C(C)NC(=O)C(CC(C)C)N(C)C(=O)C(C(C)C)NC(=O)C(CC(C)C)N(C)C(=O)CN(C)C1=O [Compound 87A, [2-((2R,3R)-5-(4-(2-(dimethylamino)ethoxy)benzyloxy)-3-methyltetrahydrofuran-2-yl)-2-(methylamino)acetic acid]^1-cyclosporin A] | – | – | IC50 [4]: 1000 to 10000 nM
19 | CC[C@@H]1NC(=O)[C@H]([C@@H]2OC(OCc3cc(Cl)cc(Cl)c3)C[C@H]2C)N(C)C(=O)[C@H](C(C)C)N(C)C(=O)[C@H](CC(C)C)N(C)C(=O)[C@H](CC(C)C)N(C)C(=O)[C@@H](C)NC(=O)[C@H](C)NC(=O)[C@H](CC(C)C)N(C)C(=O)[C@H](C(C)C)NC(=O)[C@H](CC(C)C)N(C)C(=O)CN(C)C1=O (stereo partly drawn) [Compound 91A, [2-((2R,3R)-5-(3,5-dichlorobenzyloxy)-3-methyltetrahydrofuran-2-yl)-2-(methylamino)acetic acid]^1-cyclosporin A] | – | – | IC50 (given as a range, assay not given, read-out: IC50): 1 to 1000 nM
20 | CCC1NC(=O)C(C2OC(OCc3c(Cl)cccc3Cl)CC2C)N(C)C(=O)C(C(C)C)N(C)C(=O)C(CC(C)C)N(C)C(=O)C(CC(C)C)N(C)C(=O)C(C)NC(=O)C(C)NC(=O)C(CC(C)C)N(C)C(=O)C(C(C)C)NC(=O)C(CC(C)C)N(C)C(=O)CN(C)C1=O (single isomer, unassigned) [Compound 90A] | – | – | IC50 [3]: 1 to 1000 nM
21 | CCC1NC(=O)C(C2OC(Oc3cc(OCCOC)cc(OCCOC)c3)CC2C)N(C)C(=O)C(C(C)C)N(C)C(=O)C(CC(C)C)N(C)C(=O)C(CC(C)C)N(C)C(=O)C(C)NC(=O)C(C)NC(=O)C(CC(C)C)N(C)C(=O)C(C(C)C)NC(=O)C(CC(C)C)N(C)C(=O)CN(C)C1=O (centres unmarked) [Compound 73-o] | – | 1000 to 100000 | –
22 | CCC1NC(=O)C(C2OC(Sc3cc(Cl)cc(OCC4CCOCC4)c3)CC2C)N(C)C(=O)C(C(C)C)N(C)C(=O)C(CC(C)C)N(C)C(=O)C(CC(C)C)N(C)C(=O)C(C)NC(=O)C(C)NC(=O)C(CC(C)C)N(C)C(=O)C(C(C)C)NC(=O)C(CC(C)C)N(C)C(=O)CN(C)C1=O (centres unmarked) [Compound 67] | 1000 to 100000 | – | –
23 | CCC1NC(=O)C(C2OC(Oc3cccc(O)c3)CC2C)N(C)C(=O)C(C(C)C)N(C)C(=O)C(CC(C)C)N(C)C(=O)C(CC(C)C)N(C)C(=O)C(C)NC(=O)C(C)NC(=O)C(CC(C)C)N(C)C(=O)C(C(C)C)NC(=O)C(CC(C)C)N(C)C(=O)CN(C)C1=O (centres unmarked) [Compound 25A-o] | 1000 to 100000 | – | –
